# Test results reported in patent publication US6693216B2, “Calcium double salts” (Nutrinova Nutrition Specialties & Food Ingredients GmbH, priority 2000, dated 2004).
# Where two headings read alike, the source gives them in different places.
# Legend:
# [1] = sealed
# Excerpt: Salts prepared as in example 1 were dried, stored under the specified conditions without the addition of other substances and checked at regular intervals visually for discoloration: […]
# Bacilli = details: Part I, 1 g/l in apple juice pH 4.5, 25° C.
# Lactic acid bacteria = details: Part I, 1 g/l in apple juice pH 4.5, 25° C.
# Molds I = details: Part I, 1 g/l in apple juice pH 4.5, 25° C.
# Acetic acid bacteria = details: Part I, 1 g/l in apple juice pH 4.5, 25° C.
# Clostridia = details: Part I, 1 g/l in apple juice pH 4.5, 25° C.
# Gram-negative bacteria = details: Part I, 1 g/l in apple juice pH 4.5, 25° C.
# Yeasts = details: Part I, 1 g/l in apple juice pH 4.5, 25° C.
# Gram-positive bacteria = details: Part I, 1 g/l in apple juice pH 4.5, 25° C.
# Thermophilic bacilli = details: Part I, 1 g/l in apple juice pH 4.5, 25° C.
compound,measurement,setting,value
CCC(=O)[O-].O=C([O-])c1ccccc1.[Ca+2],Time after yellow-brown discoloration of a 1% strength aqueous solution,[1]; dark at 7° C.,12 months
same,Time after yellow-brown discoloration of the powder,[1]; dark at 7° C.,12 months
same,Time after yellow-brown discoloration of a 1% strength aqueous solution,[1]; dark at 25° C.,8 months
same,Time after yellow-brown discoloration of the powder,[1]; dark at 25° C.,7 months
same,Time after yellow-brown discoloration of a 1% strength aqueous solution,[1]; under sunlight at 7° C.,12 months
same,Time after yellow-brown discoloration of the powder,[1]; under sunlight at 7° C.,12 months
same,Time after yellow-brown discoloration of a 1% strength aqueous solution,[1]; under sunlight at 25° C.,7-8 months
same,Time after yellow-brown discoloration of the powder,[1]; under sunlight at 25° C.,8 months
C/C=C/C=C/C(=O)[O-].[K+] [Potassium Sorbate],"Number of surviving microorganisms per g of contaminated sample, Bacilli",Bacilli; 1 day after inoculation (1.5 × 10^4),1.4 × 10^3 CFU/g
same,"Number of surviving microorganisms per g of contaminated sample, Bacilli",Bacilli; 3 days after inoculation (1.5 × 10^4),(<100) CFU/g
same,"Number of surviving microorganisms per g of contaminated sample, Bacilli",Bacilli; 7 days after inoculation (1.5 × 10^4),1.4 × 10^3 CFU/g
same,"Number of surviving microorganisms per g of contaminated sample, Bacilli",Bacilli; 14 days after inoculation (1.5 × 10^4),1.3 × 10^3 CFU/g
same,"Number of surviving microorganisms per g of contaminated sample, Lactic acid bacteria",Lactic acid bacteria; 1 day after inoculation (1.9 × 10^4),1.3 × 10^4 CFU/g
same,"Number of surviving microorganisms per g of contaminated sample, Lactic acid bacteria",Lactic acid bacteria; 3 days after inoculation (1.9 × 10^4),1.2 × 10^6 CFU/g
same,"Number of surviving microorganisms per g of contaminated sample, Lactic acid bacteria",Lactic acid bacteria; 7 days after inoculation (1.9 × 10^4),1.7 × 10^6 CFU/g
same,"Number of surviving microorganisms per g of contaminated sample, Lactic acid bacteria",Lactic acid bacteria; 14 days after inoculation (1.9 × 10^4),1.2 × 10^7 CFU/g
same,"Number of surviving microorganisms per g of contaminated sample, Molds I",Molds I; 1 day after inoculation (1.7 × 10^4),5.0 × 10^4 CFU/g
same,"Number of surviving microorganisms per g of contaminated sample, Molds I",Molds I; 3 days after inoculation (1.7 × 10^4),<100 CFU/g
same,"Number of surviving microorganisms per g of contaminated sample, Molds I",Molds I; 7 days after inoculation (1.7 × 10^4),<10 CFU/g
same,"Number of surviving microorganisms per g of contaminated sample, Molds I",Molds I; 14 days after inoculation (1.7 × 10^4),<10 CFU/g
same,"Number of surviving microorganisms per g of contaminated sample, Acetic acid bacteria",Acetic acid bacteria; 1 day after inoculation (2.3 × 10^4),1.7 × 10^4 CFU/g
same,"Number of surviving microorganisms per g of contaminated sample, Acetic acid bacteria",Acetic acid bacteria; 3 days after inoculation (2.3 × 10^4),4.3 × 10^5 CFU/g
same,"Number of surviving microorganisms per g of contaminated sample, Acetic acid bacteria",Acetic acid bacteria; 7 days after inoculation (2.3 × 10^4),1.3 × 10^3 CFU/g
same,"Number of surviving microorganisms per g of contaminated sample, Acetic acid bacteria",Acetic acid bacteria; 14 days after inoculation (2.3 × 10^4),2.7 × 10^5 CFU/g
same,"Number of surviving microorganisms per g of contaminated sample, Clostridia",Clostridia; 1 day after inoculation (1.4 × 10^4),1.1 × 10^3 CFU/g
same,"Number of surviving microorganisms per g of contaminated sample, Clostridia",Clostridia; 3 days after inoculation (1.4 × 10^4),450 CFU/g
same,"Number of surviving microorganisms per g of contaminated sample, Clostridia",Clostridia; 7 days after inoculation (1.4 × 10^4),160 CFU/g
same,"Number of surviving microorganisms per g of contaminated sample, Clostridia",Clostridia; 14 days after inoculation (1.4 × 10^4),250 CFU/g
same,"Number of surviving microorganisms per g of contaminated sample, Gram-negative bacteria",Gram-negative bacteria; 1 day after inoculation (2.4 × 10^4),2.9 × 10^4 CFU/g
same,"Number of surviving microorganisms per g of contaminated sample, Gram-negative bacteria",Gram-negative bacteria; 3 days after inoculation (2.4 × 10^4),1.5 × 10^3 CFU/g
same,"Number of surviving microorganisms per g of contaminated sample, Gram-negative bacteria",Gram-negative bacteria; 7 days after inoculation (2.4 × 10^4),350 CFU/g
same,"Number of surviving microorganisms per g of contaminated sample, Gram-negative bacteria",Gram-negative bacteria; 14 days after inoculation (2.4 × 10^4),<10 CFU/g
same,"Number of surviving microorganisms per g of contaminated sample, Yeasts",Yeasts; 1 day after inoculation (2.5 × 10^4),2.7 × 10^5 CFU/g
same,"Number of surviving microorganisms per g of contaminated sample, Yeasts",Yeasts; 3 days after inoculation (2.5 × 10^4),1.1 × 10^4 CFU/g
same,"Number of surviving microorganisms per g of contaminated sample, Yeasts",Yeasts; 7 days after inoculation (2.5 × 10^4),6.0 × 10^2 CFU/g
same,"Number of surviving microorganisms per g of contaminated sample, Yeasts",Yeasts; 14 days after inoculation (2.5 × 10^4),<10 CFU/g
same,"Number of surviving microorganisms per g of contaminated sample, Gram-positive bacteria",Gram-positive bacteria; 1 day after inoculation (2.6 × 10^4),5.5 × 10^4 CFU/g
same,"Number of surviving microorganisms per g of contaminated sample, Gram-positive bacteria",Gram-positive bacteria; 3 days after inoculation (2.6 × 10^4),7.0 × 10^3 CFU/g
same,"Number of surviving microorganisms per g of contaminated sample, Gram-positive bacteria",Gram-positive bacteria; 7 days after inoculation (2.6 × 10^4),<100 CFU/g
same,"Number of surviving microorganisms per g of contaminated sample, Gram-positive bacteria",Gram-positive bacteria; 14 days after inoculation (2.6 × 10^4),<10 CFU/g
same,"Number of surviving microorganisms per g of contaminated sample, Thermophilic bacilli",Thermophilic bacilli; 1 day after inoculation (1.3 × 10^4),1.6 × 10^3 CFU/g
same,"Number of surviving microorganisms per g of contaminated sample, Thermophilic bacilli",Thermophilic bacilli; 3 days after inoculation (1.3 × 10^4),900 CFU/g
same,"Number of surviving microorganisms per g of contaminated sample, Thermophilic bacilli",Thermophilic bacilli; 7 days after inoculation (1.3 × 10^4),<100 CFU/g
same,"Number of surviving microorganisms per g of contaminated sample, Thermophilic bacilli",Thermophilic bacilli; 14 days after inoculation (1.3 × 10^4),<10 CFU/g
